{"source": "ChEMBL document CHEMBL3885861", "about": "“Open TG-GATES”", "organism": "Rattus norvegicus", "assay": "Open TG-GATES - Regimen: Daily Repeat", "assay_type": "toxicity, organism-based, Sprague-Dawley", "set-up": "regimen Daily Repeat, gender Male, age 6 weeks", "conditions": "in vivo, po, 30 mg/kg, route gavage, dose level Low; for APTT / Bas / Eos / Fbg / Hb / Ht / Lym / MCH / MCHC / MCV / Mono / Neu / PT / Plat / RBC / Ret / WBC: tissue Blood", "key": {"[1]": {"conditions": "72 h, tissue Kidney, time 3 day"}, "[2]": {"conditions": "72 h, tissue Plasma, time 3 day"}}}
{"smiles": "CC[C@H]1[C@@H]2C[C@H]3[C@@H]4N(C)c5ccccc5[C@]45C[C@@H]([C@@H]2[C@H]5O)N3[C@@H]1O", "note": "[AJMALINE]", "values": [{"measurement": "TERMINAL_BW", "setting": "72 h, time 3 day", "value": 214.3, "unit": "g"}, {"measurement": "APTT", "setting": "72 h, time 3 day", "value": 16.2, "unit": "s"}, {"measurement": "Bas", "setting": "72 h, time 3 day", "value": 0, "unit": "%"}, {"measurement": "Eos", "setting": "72 h, time 3 day", "value": 1.2, "unit": "%"}, {"measurement": "Fbg", "setting": "72 h, time 3 day", "value": 210, "unit": "mg/dL"}, {"measurement": "Hb", "setting": "72 h, time 3 day", "value": 13, "unit": "g/dL"}, {"measurement": "Ht", "setting": "72 h, time 3 day", "value": 39.3, "unit": "%"}, {"measurement": "Lym", "setting": "72 h, time 3 day", "value": 78, "unit": "%"}, {"measurement": "MCH", "setting": "72 h, time 3 day", "value": 21.7, "unit": "pg"}, {"measurement": "MCHC", "setting": "72 h, time 3 day", "value": 33, "unit": "%"}, {"measurement": "MCV", "setting": "72 h, time 3 day", "value": 65.7, "unit": "fL"}, {"measurement": "Mono", "setting": "72 h, time 3 day", "value": 8.4, "unit": "%"}, {"measurement": "Neu", "setting": "72 h, time 3 day", "value": 12.8, "unit": "%"}, {"measurement": "PT", "setting": "72 h, time 3 day", "value": 11.7, "unit": "s"}, {"measurement": "Plat", "setting": "72 h, time 3 day", "value": 118, "unit": "x10_4/uL"}, {"measurement": "RBC", "setting": "72 h, time 3 day", "value": 599, "unit": "x10_4/ul"}, {"measurement": "Ret", "setting": "72 h, time 3 day", "value": 8.9, "unit": "%"}, {"measurement": "WBC", "setting": "72 h, time 3 day", "value": 93, "unit": "x10_2/uL"}, {"measurement": "KIDNEY_L", "setting": "[1]", "value": 0.9, "unit": "g"}, {"measurement": "KIDNEY_R", "setting": "[1]", "value": 0.9, "unit": "g"}, {"measurement": "KIDNEY_TOTAL", "setting": "[1]", "value": 1.8, "unit": "g"}, {"measurement": "LIVER", "setting": "72 h, tissue Liver, time 3 day", "value": 10.4, "unit": "g"}, {"measurement": "A/G", "setting": "[2]", "value": 2.1}, {"measurement": "ALP", "setting": "[2]", "value": 904.4, "unit": "IU/L"}, {"measurement": "ALT", "setting": "[2]", "value": 36.2, "unit": "IU/L"}, {"measurement": "AST", "setting": "[2]", "value": 66.6, "unit": "IU/L"}, {"measurement": "BUN", "setting": "[2]", "value": 18.2, "unit": "mg/dL"}, {"measurement": "CRE", "setting": "[2]", "value": 0.5, "unit": "mg/dL"}, {"measurement": "Ca", "setting": "[2]", "value": 11.1, "unit": "mg/dL"}, {"measurement": "Cl", "setting": "[2]", "value": 102.6, "unit": "meq/L"}, {"measurement": "DBIL", "setting": "[2]", "value": 0.024, "unit": "mg/dL"}, {"measurement": "GLC", "setting": "[2]", "value": 198.2, "unit": "mg/dL"}, {"measurement": "IP", "setting": "[2]", "value": 7.2, "unit": "mg/dL"}, {"measurement": "K", "setting": "[2]", "value": 4.3, "unit": "meq/L"}, {"measurement": "LDH", "setting": "[2]", "value": 113, "unit": "IU/L"}, {"measurement": "Na", "setting": "[2]", "value": 139.6, "unit": "meq/L"}, {"measurement": "PL", "setting": "[2]", "value": 141.4, "unit": "mg/dL"}, {"measurement": "RALB", "setting": "[2]", "value": 3.8, "unit": "g/dL"}, {"measurement": "TBIL", "setting": "[2]", "value": 0.3, "unit": "mg/dL"}, {"measurement": "TC", "setting": "[2]", "value": 78.2, "unit": "mg/dL"}, {"measurement": "TG", "setting": "[2]", "value": 85, "unit": "mg/dL"}, {"measurement": "TP", "setting": "[2]", "value": 5.6, "unit": "g/dL"}, {"measurement": "gamma-GTP", "setting": "[2]", "value": 0.8, "unit": "IU/L"}, {"measurement": "TERMINAL_BW", "setting": "[…], time 7 day", "value": 248, "unit": "g"}, {"measurement": "TERMINAL_BW", "setting": "[…], time 14 day", "value": 297.8, "unit": "g"}, {"measurement": "TERMINAL_BW", "setting": "[…], time 28 day", "value": 375.4, "unit": "g"}, {"measurement": "APTT", "setting": "[…], time 7 day", "value": 17, "unit": "s"}, {"measurement": "Bas", "setting": "[…], time 7 day", "value": 0, "unit": "%"}, {"measurement": "Eos", "setting": "[…], time 7 day", "value": 1.2, "unit": "%"}, {"measurement": "Fbg", "setting": "[…], time 7 day", "value": 229.4, "unit": "mg/dL"}, {"measurement": "Hb", "setting": "[…], time 7 day", "value": 13, "unit": "g/dL"}, {"measurement": "Ht", "setting": "[…], time 7 day", "value": 39.1, "unit": "%"}, {"measurement": "Lym", "setting": "[…], time 7 day", "value": 75.4, "unit": "%"}, {"measurement": "MCH", "setting": "[…], time 7 day", "value": 21.4, "unit": "pg"}, {"measurement": "MCHC", "setting": "[…], time 7 day", "value": 33.3, "unit": "%"}, {"measurement": "MCV", "setting": "[…], time 7 day", "value": 64.2, "unit": "fL"}, {"measurement": "Mono", "setting": "[…], time 7 day", "value": 10.2, "unit": "%"}, {"measurement": "Neu", "setting": "[…], time 7 day", "value": 13.6, "unit": "%"}, {"measurement": "PT", "setting": "[…], time 7 day", "value": 11.4, "unit": "s"}, {"measurement": "Plat", "setting": "[…], time 7 day", "value": 118.3, "unit": "x10_4/uL"}, {"measurement": "RBC", "setting": "[…], time 7 day", "value": 609.8, "unit": "x10_4/ul"}, {"measurement": "Ret", "setting": "[…], time 7 day", "value": 7, "unit": "%"}, {"measurement": "WBC", "setting": "[…], time 7 day", "value": 106.1, "unit": "x10_2/uL"}, {"measurement": "APTT", "setting": "[…], time 14 day", "value": 16.7, "unit": "s"}, {"measurement": "Bas", "setting": "[…], time 14 day", "value": 0, "unit": "%"}, {"measurement": "Eos", "setting": "[…], time 14 day", "value": 1, "unit": "%"}, {"measurement": "Fbg", "setting": "[…], time 14 day", "value": 224, "unit": "mg/dL"}, {"measurement": "Hb", "setting": "[…], time 14 day", "value": 13.9, "unit": "g/dL"}, {"measurement": "Ht", "setting": "[…], time 14 day", "value": 41.9, "unit": "%"}, {"measurement": "Lym", "setting": "[…], time 14 day", "value": 85, "unit": "%"}, {"measurement": "MCH", "setting": "[…], time 14 day", "value": 20.3, "unit": "pg"}, {"measurement": "MCHC", "setting": "[…], time 14 day", "value": 33.1, "unit": "%"}, {"measurement": "MCV", "setting": "[…], time 14 day", "value": 61.4, "unit": "fL"}, {"measurement": "Mono", "setting": "[…], time 14 day", "value": 4.2, "unit": "%"}, {"measurement": "Neu", "setting": "[…], time 14 day", "value": 10, "unit": "%"}, {"measurement": "PT", "setting": "[…], time 14 day", "value": 11.1, "unit": "s"}, {"measurement": "Plat", "setting": "[…], time 14 day", "value": 121.6, "unit": "x10_4/uL"}, {"measurement": "RBC", "setting": "[…], time 14 day", "value": 683.4, "unit": "x10_4/ul"}, {"measurement": "Ret", "setting": "[…], time 14 day", "value": 4.3, "unit": "%"}, {"measurement": "WBC", "setting": "[…], time 14 day", "value": 138.2, "unit": "x10_2/uL"}, {"measurement": "APTT", "setting": "[…], time 28 day", "value": 17.2, "unit": "s"}, {"measurement": "Bas", "setting": "[…], time 28 day", "value": 0, "unit": "%"}, {"measurement": "Eos", "setting": "[…], time 28 day", "value": 1, "unit": "%"}, {"measurement": "Fbg", "setting": "[…], time 28 day", "value": 221.6, "unit": "mg/dL"}, {"measurement": "Hb", "setting": "[…], time 28 day", "value": 15.4, "unit": "g/dL"}, {"measurement": "Ht", "setting": "[…], time 28 day", "value": 45.5, "unit": "%"}]}
